PubChem BioAssay AID1963983 (Molecular Pharmacology Branch, DTP, NCI, 2024)

System: 186277-243-T-J2-PDC multi-cell spheroid viability
Assay: Anticancer human tumor 186277-243-T-J2-PDC patient-derived colon adenocarcinoma cell line growth inhibition [PI3K]
Conditions: for IC50: curve of first compound; for viability, T/C: stronger effect = lower value
Method in brief: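 Three cell types, namely tumor cells, endothelial cells and mesenchymal stem cells, formed each spheroid. Combinations with four PI3K inhibitors were screened at clinically achievable concentrations decreasing by half-log, and spheroid viability was recorded.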

[1] = second compound 0.00316 µM, first compound 0.0316 µM
[2] = second compound 0.00316 µM, first compound 0.1 µM
[3] = second compound 0.00316 µM, first compound 0.316 µM
[4] = second compound 0.00316 µM, first compound 1 µM
[5] = second compound 0.00316 µM, first compound 3.16 µM
[6] = second compound 0.00316 µM, first compound 10 µM
[7] = second compound 0.01 µM, first compound 0.0316 µM
[8] = second compound 0.01 µM, first compound 0.1 µM
[9] = second compound 0.01 µM, first compound 0.316 µM
[10] = second compound 0.01 µM, first compound 1 µM
[11] = second compound 0.01 µM, first compound 3.16 µM
[12] = second compound 0.01 µM, first compound 10 µM
[13] = second compound 0.0316 µM, first compound 0.0316 µM
[14] = second compound 0.0316 µM, first compound 0.1 µM
[15] = second compound 0.0316 µM, first compound 0.316 µM
[16] = second compound 0.0316 µM, first compound 1 µM
[17] = second compound 0.0316 µM, first compound 3.16 µM
[18] = second compound 0.0316 µM, first compound 10 µM
[19] = second compound 0.1 µM, first compound 0.0316 µM
[20] = second compound 0.1 µM, first compound 0.1 µM
[21] = second compound 0.1 µM, first compound 0.316 µM
[22] = second compound 0.1 µM, first compound 1 µM
[23] = second compound 0.1 µM, first compound 3.16 µM
[24] = second compound 0.1 µM, first compound 10 µM
[25] = second compound 0.316 µM, first compound 0.0316 µM
[26] = second compound 0.316 µM, first compound 0.1 µM
[27] = second compound 0.316 µM, first compound 0.316 µM
[28] = second compound 0.316 µM, first compound 1 µM
[29] = second compound 0.316 µM, first compound 3.16 µM
[30] = second compound 0.316 µM, first compound 10 µM
[31] = second compound 1 µM, first compound 0.0316 µM
[32] = second compound 1 µM, first compound 0.1 µM
[33] = second compound 1 µM, first compound 0.316 µM
[34] = second compound 1 µM, first compound 1 µM
[35] = second compound 1 µM, first compound 3.16 µM
[36] = second compound 1 µM, first compound 10 µM
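Also: spheroids exposed to compounds for seven days before viability reading.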
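For viability, T/C in this document: 100% = DMSO vehicle control viability.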

Compound: Cn1nccc1Nc1nccc(-c2ccn(C(CO)c3ccc(Cl)c(F)c3)c(=O)c2)n1 (stereo not drawn) + COc1c(OCCCN2CCOCC2)ccc2c3n(c(=NC(=O)c4cnc(N)nc4)nc12)CCN3
- IC50 (second compound 0.00316 µM): 1080 nM
- IC50 (second compound 0.01 µM): 502 nM
- IC50 (second compound 0.0316 µM): < 31.6 nM
- IC50 (second compound 0.1 µM): < 31.6 nM
- IC50 (second compound 0.316 µM): < 31.6 nM
- IC50 (second compound 1 µM): < 31.6 nM
- viability, T/C [1]: 109%
- viability, T/C [2]: 107%
- viability, T/C [3]: 89.2%
- viability, T/C [4]: 51.6%
- viability, T/C [5]: 24.3%
- viability, T/C [6]: 15.1%
- viability, T/C [7]: 86.3%
- viability, T/C [8]: 94.6%
- viability, T/C [9]: 57.7%
- viability, T/C [10]: 32.6%
- viability, T/C [11]: 14.7%
- viability, T/C [12]: 5.46%
- viability, T/C [13]: 47.2%
- viability, T/C [14]: 34.6%
- viability, T/C [15]: 18.4%
- viability, T/C [16]: 10.2%
- viability, T/C [17]: 6.79%
- viability, T/C [18]: 8.22%
- viability, T/C [19]: 9.72%
- viability, T/C [20]: 8.17%
- viability, T/C [21]: 6.57%
- viability, T/C [22]: 2.91%
- viability, T/C [23]: 2.2%
- viability, T/C [24]: 1.76%
- viability, T/C [25]: 3.78%
- viability, T/C [26]: 6.01%
- viability, T/C [27]: 1.78%
- viability, T/C [28]: 1.08%
- viability, T/C [29]: 1.43%
- viability, T/C [30]: 0.17%
- viability, T/C [31]: 2.33%
- viability, T/C [32]: 2.25%
- viability, T/C [33]: 0.33%
- viability, T/C [34]: 0.28%
- viability, T/C [35]: 0.15%
- viability, T/C [36]: 0.27%

Compound: C#Cc1c(F)ccc2cc(O)cc(-c3ncc4c(N5CC6CCC(C5)N6)nc(OCC56CCCN5CC(F)C6)nc4c3F)c12 (stereo not drawn) + CC(Nc1ccc2c(c1)OCCn1cc(N3C(=O)OCC3C(F)F)nc1-2)C(N)=O
- IC50 (second compound 0.00316 µM): 60.3 nM
- IC50 (second compound 0.01 µM): 58.9 nM
- IC50 (second compound 0.0316 µM): < 31.6 nM
- IC50 (second compound 0.1 µM): < 31.6 nM
- IC50 (second compound 0.316 µM): < 31.6 nM
- IC50 (second compound 1 µM): < 31.6 nM
- viability, T/C [1]: 73.4%
- viability, T/C [2]: 31.6%
- viability, T/C [3]: 16.4%
- viability, T/C [4]: 16.3%
- viability, T/C [5]: 12.6%
- viability, T/C [6]: 8.99%
- viability, T/C [7]: 72.2%
- viability, T/C [8]: 31.1%
- viability, T/C [9]: 15.8%
- viability, T/C [10]: 11.8%
- viability, T/C [11]: 14%
- viability, T/C [12]: 9.85%
- viability, T/C [13]: 48.9%
- viability, T/C [14]: 23.6%
- viability, T/C [15]: 13.1%
- viability, T/C [16]: 14.6%
- viability, T/C [17]: 7.53%
- viability, T/C [18]: 7.66%
- viability, T/C [19]: 24.8%
- viability, T/C [20]: 9.05%
- viability, T/C [21]: 12.4%
- viability, T/C [22]: 7.52%
- viability, T/C [23]: 6.59%
- viability, T/C [24]: 4.7%
- viability, T/C [25]: 10.9%
- viability, T/C [26]: 7.34%
- viability, T/C [27]: 4.32%
- viability, T/C [28]: 4.02%
- viability, T/C [29]: 4.87%
- viability, T/C [30]: 2.61%
- viability, T/C [31]: 15.1%
- viability, T/C [32]: 8.27%
- viability, T/C [33]: 6.04%
- viability, T/C [34]: 3.18%
- viability, T/C [35]: 3.45%
- viability, T/C [36]: 1.57%

Compound: CNC(=O)c1ccc(N2C(=S)N(c3ccc(C#N)c(C(F)(F)F)c3)C(=O)C2(C)C)cc1F + CC(Nc1ccc2c(c1)OCCn1cc(N3C(=O)OCC3C(F)F)nc1-2)C(N)=O
- IC50 (second compound 0.00316 µM): > 10000 nM
- IC50 (second compound 0.01 µM): > 10000 nM
- IC50 (second compound 0.0316 µM): > 10000 nM
- IC50 (second compound 0.1 µM): > 10000 nM
- IC50 (second compound 0.316 µM): > 10000 nM
- IC50 (second compound 1 µM): 356 nM
- viability, T/C [1]: 109%
- viability, T/C [2]: 95.8%
- viability, T/C [3]: 90.8%
- viability, T/C [4]: 98%
- viability, T/C [5]: 109%
- viability, T/C [6]: 92.2%
- viability, T/C [7]: 98%
- viability, T/C [8]: 83.8%
- viability, T/C [9]: 99.3%
- viability, T/C [10]: 89.4%
- viability, T/C [11]: 93.7%
- viability, T/C [12]: 106%
- viability, T/C [13]: 110%
- viability, T/C [14]: 111%
- viability, T/C [15]: 94.1%
- viability, T/C [16]: 113%
- viability, T/C [17]: 113%
- viability, T/C [18]: 99.2%
- viability, T/C [19]: 105%
- viability, T/C [20]: 95.5%
- viability, T/C [21]: 100%
- viability, T/C [22]: 112%
- viability, T/C [23]: 90.2%
- viability, T/C [24]: 86.1%
- viability, T/C [25]: 86.6%
- viability, T/C [26]: 80%
- viability, T/C [27]: 68.5%
- viability, T/C [28]: 79.4%
- viability, T/C [29]: 73.7%
- viability, T/C [30]: 63.4%
- viability, T/C [31]: 58%
- viability, T/C [32]: 50.4%
- viability, T/C [33]: 45.1%
- viability, T/C [34]: 51.6%
- viability, T/C [35]: 49.6%
- viability, T/C [36]: 38.5%

Compound: CC(Cn1ccc(-c2ccc(C#N)c(Cl)c2)n1)NC(=O)c1cc(C(C)O)[nH]n1 (stereo not drawn) + CC(Nc1ccc2c(c1)OCCn1cc(N3C(=O)OCC3C(F)F)nc1-2)C(N)=O
- IC50 (second compound 0.00316 µM): > 10000 nM
- IC50 (second compound 0.01 µM): > 10000 nM
- IC50 (second compound 0.0316 µM): > 10000 nM
- IC50 (second compound 0.1 µM): > 10000 nM
- IC50 (second compound 0.316 µM): > 10000 nM
- IC50 (second compound 1 µM): < 31.6 nM
- viability, T/C [1]: 97.8%
- viability, T/C [2]: 97%
- viability, T/C [3]: 91.3%
- viability, T/C [4]: 84.9%
- viability, T/C [5]: 93.6%
- viability, T/C [6]: 102%
- viability, T/C [7]: 101%
- viability, T/C [8]: 93.2%
- viability, T/C [9]: 95.6%
- viability, T/C [10]: 91.6%
- viability, T/C [11]: 108%
- viability, T/C [12]: 91.7%
- viability, T/C [13]: 106%
- viability, T/C [14]: 95.3%
- viability, T/C [15]: 102%
- viability, T/C [16]: 111%
- viability, T/C [17]: 111%
- viability, T/C [18]: 95.5%
- viability, T/C [19]: 104%
- viability, T/C [20]: 107%
- viability, T/C [21]: 101%
- viability, T/C [22]: 90.1%
- viability, T/C [23]: 88.8%
- viability, T/C [24]: 74.4%
- viability, T/C [25]: 81.3%
- viability, T/C [26]: 82%
- viability, T/C [27]: 74.6%
- viability, T/C [28]: 73%
- viability, T/C [29]: 67.7%
- viability, T/C [30]: 57.7%
- viability, T/C [31]: 47.7%
- viability, T/C [32]: 45.9%
- viability, T/C [33]: 44.9%
- viability, T/C [34]: 45.6%
- viability, T/C [35]: 44%
- viability, T/C [36]: 35.4%
